From patent US5043328A, “Formulations containing unsaturated fatty acids for the synthesis of prostaglandins and hydroxy-fatty acids in biological systems” (priority 1986, dated 1991) come the findings set out here.

“Also recorded” adds a separate entry of the source. No end group written: not given here.

The conditions of data set [1]: for undesired decomposition / byproducts of polyunsaturated fatty acid (arachidonic acid) with added stimulator: aqueous medium; for undesired decomposition / byproducts of polyunsaturated fatty acid (arachidonic acid) with added stimulator / effect of solvent used instead of water on formation of undesired byproducts: result in words; for effect of solvent used instead of water on formation of undesired byproducts: fatty acid with stimulator; for Stabilization (% remaining unsaturated fatty acid by Method 1): 1440 min. Here is the method: Method 1: Investigation of the Stability of Unsaturated Fatty Acids in the Formulations
The stabilizing action of substances on polyunsaturated fatty acids was investigated as follows:
Test A for Water-Soluble Substances:
0.125 mg of unsaturated fatty acid or Na salt (see tables) (sodium arachidonate, from Sigma, Munich, Germany) is dissolved in 0.05 ml of water. 0.2 ml of aqueous solution which contains 2 mg of stabilizer and can additionally contain 2 mg of stimulator is mixed in (cf. Table 1), 0.1 ml is then taken out immediately, extracted and analysed (see below). Further processing according to modification 1 or 2.
Modification 1 for Aqueous Solutions
After 24 hours incubation at 37° C., 0.1 ml is again taken, extracted and analysed (see below).
Modification 2 for Solid Mixtures (Lyophilisates)
The test solution is lyophilized, the lyophilisate is incubated for 24 hours at 37° C. and then dissolved again in the previous quantity of water, and 0.1 ml is taken, extracted and analysed (see below).
Test B for Water-Insoluble Substances:
0.125 mg of unsaturated fatty acid (arachidonic acid, 5,8,11,14,17-eicosapentaenoic acid or 8,11,14-eicosatrienoic acid, from Sigma, Munich) is dissolved in 0.05 ml of ethanol or dimethyl sulfoxide. 0.2 ml of ethanol (or dimethyl sulfoxide) which contains 2 mg of stabilizer and can additionally contain 2 mg of the stimulator (cf. Table 1) is added thereto, and 0.1 ml is taken immediately and, as below, extracted and analysed. Further treatment according to modification 1 or 2.
Modification 1 for Solutions
After 24 hours' incubation at 37° C., 0.1 ml is again taken, mixed with 0.1 ml of water, extracted and analysed.
Modification 2 for Solid Mixtures
The remaining solution is freed of solvent, incubated for 24 hours at 37° C. and then dissolved again in 0.15 ml of solvent, and 0.1 ml is taken, mixed with 0.1 ml of water, extracted and analysed.
0.05 ml of 1.2M aqueous citric acid solution is added to the samples obtained, and the samples are extracted with twice 0.5 ml of ethyl acetate, the ethyl acetate is removed from the combined extracts and the residue is dissolved in 0.8 ml of methanol and analysed by means of high-pressure liquid chromatography (HPLC) (Rad Pak C-18 column, 100×8 mm, from Waters, Konigstein, Germany, 1.5 ml/minute, solvent 800 ml of methanol, 200 ml of water and 0.1 ml of glacial acetic acid). The separation is monitored with a commercially available UV detector at 206 nm.
The prostaglandins PGE2, PGF2 alpha and PGD2 as products from arachidonic acid where quantified by means of method 2, and the sum was related as "total prostaglandin" to 100%. The quantity of "total prostaglandin" formed without the addition of a stimulator was set at f=1; the quantity formed after stimulation was related thereto. f=2 or f=3 therefore means twice or three times the stimulation under the conditions of method 2. The stability of the sample was investigated by means of method 1 (right-hand column). […] Values greater than 25-28% therefore represent a stabilization, and values smaller than 25-28% represent a destabilization. Example No. 1 was carried out without a stimulator.

Data set [2] deals with T1, enzyme (from seminal vesicles of sheep) (Ovis aries, UniProt P05979).
T1 sequence (P05979 25-600): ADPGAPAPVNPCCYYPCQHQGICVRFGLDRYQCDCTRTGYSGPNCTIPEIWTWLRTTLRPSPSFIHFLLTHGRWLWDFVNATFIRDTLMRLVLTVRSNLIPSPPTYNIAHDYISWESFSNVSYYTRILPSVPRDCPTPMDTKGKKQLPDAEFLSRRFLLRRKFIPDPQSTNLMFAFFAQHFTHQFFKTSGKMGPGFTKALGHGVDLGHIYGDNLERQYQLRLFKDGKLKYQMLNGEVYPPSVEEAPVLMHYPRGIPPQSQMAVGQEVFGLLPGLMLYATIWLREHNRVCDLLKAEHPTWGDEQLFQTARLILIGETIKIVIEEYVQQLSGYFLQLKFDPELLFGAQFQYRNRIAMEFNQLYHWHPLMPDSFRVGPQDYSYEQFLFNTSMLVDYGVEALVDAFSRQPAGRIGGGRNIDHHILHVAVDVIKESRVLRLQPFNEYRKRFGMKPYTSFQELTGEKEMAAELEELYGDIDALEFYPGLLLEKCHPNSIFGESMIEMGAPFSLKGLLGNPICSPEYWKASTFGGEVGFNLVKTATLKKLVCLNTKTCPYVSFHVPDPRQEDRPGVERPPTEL
The conditions noted are these: Table 1; for relative total prostaglandin f: 0.5 mg stimulator, 10 min 37° C., without stimulator f=1; for PGD2 % / PGE2 % / PGF2alpha %: share of total prostaglandin (=100%). Here is the method: Method 2: Prostaglandin Synthesis
0.3 ml of 0.03M potassium phosphate buffer of pH=8.0 contains 0.5 mg of enzyme (from seminal vesicles of sheep) (Biochemistry 10 (1971) 2372) or homogenate of the inner kidney medulla (Life Sciences 26 (1980) 765), 2.75 μg of ^14 C-arachidonic acid (0.5 μCi) and 0.5 mg of stimulator, and, if appropriate, 0.5 mg of stabilizer substance (see Table 1). After 10 minutes' incubation at 37° C., the reaction is stopped with 0.05 ml of 1.2M citric acid and the mixture is extracted with twice 0.5 ml of ethyl acetate, the combined extracts are freed of solvent, and the residue is dissolved in 0.2 ml of methanol, diluted 1:1 with water and separated by HPLC (nucleosil C-18 column, 125×4.6 mm, from Bischoff, Leonberg, Germany, solvent 300 ml of acetonitrile, 700 ml of water and 1 ml of glacial acetic acid and after 30 minutes pure methanol). The separation of the radioactive fractions is followed by a monitor (LB 504 from Berthold, Wildbad, Germany). The products formed, such as 6-keto-prostaglandin F2alpha, prostaglandin E2, prostaglandin F2alpha and prostaglandin D2, are separated under these conditions.
The prostaglandins PGE2, PGF2 alpha and PGD2 as products from arachidonic acid where quantified by means of method 2, and the sum was related as "total prostaglandin" to 100%. The quantity of "total prostaglandin" formed without the addition of a stimulator was set at f=1; the quantity formed after stimulation was related thereto. f=2 or f=3 therefore means twice or three times the stimulation under the conditions of method 2. The stability of the sample was investigated by means of method 1 (right-hand column). […] Values greater than 25-28% therefore represent a stabilization, and values smaller than 25-28% represent a destabilization. Example No. 1 was carried out without a stimulator. […] The substances test with respect to stabilization (see Method 1 for quantities) were: A) aqueous solution without stabilizer addition, B) ethanolic solution without further addition, C) pyridine solution, D) with rutin, predissolved in dimethyl sulfoxide, dimethyl sulfoxide then stripped off, E) like B) with lecithin, ethanol stripped off, F) like A) with cytochrome c from horse heart (from Boehringer, Mannheim, Germany), G) like A) with methemoglobin (human) (from Sigman, Munich, Germany), H) like A) with bovine serum albumin (from Calbiochem, Frankfurt, Germany), J) like A) or B), but solvent stripped off, K) like J) with cytochrome c, L) like J) with hemoglobin (human) (from Behringwerke, Marburg, Germany), and M) like J) with human serum albumin (from Behringwerke, Marburg, Germany).

Take `N[C@@H](Cc1c[nH]c2ccc(O)cc12)C(=O)O` [5-hydroxytryptophan, reference compound]: the “undesired decomposition / byproducts of polyunsaturated fatty acid (arachidonic acid) with added stimulator” value (“undesired decomposition / byproducts” for short) in data set [1] is “considerably accelerated”.
For `CCC(C)O` (centres unmarked) [Example 2-butanol, 2-butanol], the “effect of solvent used instead of water on formation of undesired byproducts” value (shortened to “effect of solvent used instead of water”) in data set [1] is “additional destabilizing effect”.
Turning to `OC[C@H]1O[C@@H]2O[C@H]3[C@H](O)[C@@H](O)[C@@H](O[C@H]4[C@H](O)[C@@H](O)[C@@H](O[C@H]5[C@H](O)[C@@H](O)[C@@H](O[C@H]6[C@H](O)[C@@H](O)[C@@H](O[C@H]7[C@H](O)[C@@H](O)[C@@H](O[C@H]1[C@H](O)[C@H]2O)O[C@@H]7CO)O[C@@H]6CO)O[C@@H]5CO)O[C@@H]4CO)O[C@@H]3CO` [Example 62, alpha-Dextrin (Cyclohexaamylose)], the “Stabilization (% remaining unsaturated fatty acid by Method 1)” value in data set [1] worked out at 60%.
For the compound `OC[C@H]1O[C@@H]2O[C@H]3[C@H](O)[C@@H](O)[C@@H](O[C@H]4[C@H](O)[C@@H](O)[C@@H](O[C@H]5[C@H](O)[C@@H](O)[C@@H](O[C@H]6[C@H](O)[C@@H](O)[C@@H](O[C@H]7[C@H](O)[C@@H](O)[C@@H](O[C@H]8[C@H](O)[C@@H](O)[C@@H](O[C@H]9[C@H](O)[C@@H](O)[C@@H](O[C@H]1[C@H](O)[C@H]2O)O[C@@H]9CO)O[C@@H]8CO)O[C@@H]7CO)O[C@@H]6CO)O[C@@H]5CO)O[C@@H]4CO)O[C@@H]3CO` [Example 64, gamma-Dextrin (Cyclooctaamylose)], in data set [1], the “Stabilization (% remaining unsaturated fatty acid by Method 1)” value is 75%.
As to `CNCC(O)c1ccc(O)c(O)c1` (centres unmarked) [adrenalin, reference compound], the “undesired decomposition / byproducts” value in data set [1] is “considerably accelerated”.
As to `CCCCC/C=C\C/C=C\C/C=C\C/C=C\CCCC(=O)O` [arachidonic acid], the “Stability (% of remaining arachidonic acid by Method 1)” value in data set [1] (A) aqueous solution without stabilizer addition, 24 h 37° C.) is 25-28%.
Consider `C[S+](C)[O-]` [dimethyl sulfoxide], for which, in data set [1], the “effect of solvent used instead of water” value was “do not arise”.
As for `CCO` [ethanol], the “effect of solvent used instead of water” value in data set [1] was “do not arise”.
`O=C[C@H](O)[C@@H](O)[C@H](O)[C@H](O)CO` [glucose, reference compound]: the “stabilization of aqueous mixtures of unsaturated fatty acid and stimulators” value in data set [1] is “not stabilizing”.
Regarding `OCC(O)CO` [glycerol], in data set [1], the “effect of solvent used instead of water” value is “do not arise”.
For `Oc1ccc(O)cc1` [hydroquinone, reference compound], in data set [1], the “undesired decomposition / byproducts” value is “markedly greater quantity; also recorded: considerably accelerated”.
With `NC[C@H](O)c1ccc(O)c(O)c1` [noradrenalin, reference compound], the “undesired decomposition / byproducts” value in data set [1] was “considerably accelerated”.
As for `c1ccncc1` [pyridine], the “effect of solvent used instead of water” value in data set [1] is recorded as “additional destabilizing effect”.
Take `OC[C@@H](O)[C@@H](O)[C@H](O)[C@@H](O)CO` [sorbitol, reference compound]: the “stabilization of aqueous mixtures of unsaturated fatty acid and stimulators” value in data set [1] is reported as “not stabilizing”.
Turning to `N[C@@H](Cc1c[nH]c2ccccc12)C(=O)O` [tryptophan, reference compound], the “undesired decomposition / byproducts” value in data set [1] was “considerably accelerated”.
Still for that read-out and setting: next, `N[C@@H](Cc1ccc(O)cc1)C(=O)O` [tyrosine]: “completely stable”.
As to GlyTrpGly [Example 25], in data set [2], the “relative total prostaglandin f” value was 13.0, the PGD2 % was 20%, the PGE2 % turned out to be 79% and the PGF2alpha % came to 1%.
Take LeuTrp [Example 27]: in data set [2], the “relative total prostaglandin f” value was 17.0, the PGD2 % is given as 22%, the PGE2 % was determined as 77% and the PGF2alpha % worked out at 1%.
For LeuTrpMet [Example 29] the same measures were 10.8, 22%, 69% and 9%.
Take TrpAla [Example 26]: in data set [2], the “relative total prostaglandin f” value was determined as 12.6, the PGD2 % was determined as 22%, the PGE2 % amounted to 77% and the PGF2alpha % is on record as 1%.
As to TrpTrp [Example 24], in data set [2], the “relative total prostaglandin f” value is recorded as 11.7, the PGD2 % is listed as 23%, the PGE2 % amounted to 75% and the PGF2alpha % was determined as 2%.
For TyrTrp [Example 31] the same measures were 6.3, 14%, 73% and 3%.
The matching figures for TyrTyrTyrOCH3 [Example 30]: 5.3, 11%, 75% and 4%.
With YCEHFRWG [Example 38], the Stimulation result in data set [2] (result in words) is “positive”.
In the case of polyethylene glycol, in data set [1], the “effect of solvent used instead of water” value is reported as “do not arise”.
As to rhamnoglucose [reference compound], the “stabilization of aqueous mixtures of unsaturated fatty acid and stimulators” value in data set [1] is “not stabilizing”.
